Results reported in patent US20110014196A1, “Drug Transfer into Living Cells” (priority 2007, published 2011).

How the values were obtained:
Assay type in all cases: biochemical
[1] = tested on: HaloTag protein available from Promega Corporation; test: Protein trimer formation with HaloTag protein by SDS-PAGE; conditions: 4 h incubation at rt, coomassie staining
Method: To a solution of N-tris[(2-carboxyethoxy)methyl]methyl nile red-oxyacetamide (86) (6 mg, 0.0083 mmol) and 18-chloro-3,6,9,12-tetraoxaoctadecan-1-amine (10 mg, 0.029 mmol, 3.5 eq) in DMF (1 mL) are successively added pyridine (5 μL, 0.058 mmol, 7 eq), HOBT (1 M in NMP, 8.3 μL, 0.0083 mmol, 1 eq) and EDC (6 mg, 0.029 mmol, 3.5 eq) at rt. The resulting mixture is stirred overnight. The solvent is evaporated under vacuum and compound (100) isolated by reversed phase HPLC on a C18 column using a linear gradient of water:acetonitrile (from 95:5 to 20:80 in 20 min, 0.08% TFA). The structural ability of compound (100) to trigger the formation of a protein trimer is confirmed by in vitro experiments using the fusion protein H2. 10 μL of a 70 μM solution of HaloTag protein available from Promega Corporation and 1.8 μL of a 230 μM solution of compound (100) is added to 3.2 μL of a solution of 50 mM Tris-HCl pH 7.5; 100 mM NaCl; 0.1% Tween20; 1 mM DTT. Following a 4 h incubation at rt, 15 μL of a solution of 100 mM Tris-HCl pH 6.8; 2% SDS; 35% glycerol; 10 mM EDTA; 20 mM DTT is added. Then the mixture is boiled for 5 min at 95° C. After cooling to rt, 25 μL of this solution is loaded on a 4-20% linear gradient SDS-PAGE gel. After electrophoresis, the proteins are coomassie stained in gel to visualize protein trimer.

[2] = tested on: fusion protein CLIP-FRB and the fusion protein SNAP-FKBP; test: Protein dimer formation with CLIP-FRB and SNAP-FKBP by SDS-PAGE; conditions: overnight incubation at 4° C., coomassie staining
Method: The structural ability of compound (104) and (105) to trigger the formation of a protein dimer is confirmed by in vitro experiments using the fusion protein CLIP-FRB and the fusion protein SNAP-FKBP. 1 μL of a 591 μM solution of FKBP protein fused to a variant of AGT available from Covalys as SNAP26, 10 μL of a 52.9 μM solution of FRB protein fused to a variant of AGT available from Covalys as CLIP and 1 μL of a 62.5 μM solution of mixture of compounds (104) and (105) is added to 3 μL of a solution of 50 mM Tris-HCl pH 7.5; 100 mM NaCl; 0.1% Tween20; 1 mM DTT. Following overnight incubation at 4° C., 15 μL of a solution of 100 mM Tris-HCl pH 6.8; 2% SDS; 35% glycerol; 10 mM EDTA; 20 mM DTT is added. Then the mixture is boiled for 5 min at 95° C. After cooling to rt, 25 μL of this solution is loaded on a 4-20% linear gradient SDS-PAGE gel. After electrophoresis, the proteins are coomassie stained in gel to visualize protein dimer.

[3] = tested on: fusion protein CLIP-FRB; test: Protein trimer formation with CLIP-FRB by SDS-PAGE; conditions: 4 h incubation at rt, coomassie staining
Chain of fusion protein CLIP-FRB (P16455 1-182 with the stated changes limits assumed): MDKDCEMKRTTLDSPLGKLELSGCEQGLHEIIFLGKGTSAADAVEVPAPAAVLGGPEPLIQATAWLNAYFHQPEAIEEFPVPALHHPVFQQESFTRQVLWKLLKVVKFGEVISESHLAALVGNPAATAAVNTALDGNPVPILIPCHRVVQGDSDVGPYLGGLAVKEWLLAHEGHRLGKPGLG
Method: To a solution of N-tris[(2-carboxyethoxy)methyl]methyl nile red-oxyacetamide (86) (10 mg, 0.014 mmol) and BC-PEG12-NH2 (98) (41 mg, 0.049 mmol, 3.5 eq) in DMF (1 mL) are successively added DIPEA (8.1 μL, 0.049 mmol, 3.5 eq), HOBT (1 M in NMP, 14 μL, 0.014 mmol, 1 eq) and EDC (10 mg, 0.049 mmol, 3.5 eq) at rt. The resulting mixture is stirred overnight. The solvent is evaporated under vacuum and compound (99) isolated by reversed phase HPLC on a C18 column using a linear gradient of water:acetonitrile (from 95:5 to 20:80 in 20 min, 0.08% TFA). The structural ability of compound (99) to trigger the formation of a protein trimer is confirmed by in vitro experiments using the fusion protein CLIP-FRB. 20 μL of a 52.9 μM solution of FRB protein fused to a variant of AGT available from Covalys under the trade name CLIP and 2 μL of a 100 μM solution of compound (99) is added to 3 μL of a solution of 50 mM Iris-HCl pH 7.5; 100 mM NaCl; 0.1% Tween20; 1 mM DTT. Following a 4 h incubation at rt, 15 μL of a solution of 100 mM Tris-HCl pH 6.8; 2% SDS; 35% glycerol; 10 mM EDTA; 20 mM DTT is added. Then the mixture is boiled for 5 min at 95° C. After cooling to rt, 25 μL of this solution is loaded on a 4-20% linear gradient SDS-PAGE gel. After electrophoresis, the proteins are coomassie stained in gel to visualize protein trimer.

[4] = tested on: FKBP protein fused to a variant of AGT available from Covalys as SNAP26 (SNAP-FKBP); test: Reactivity with FKBP-AGT fusion protein: protein trimer formation by SDS-PAGE and coomassie staining; conditions: 4 h incubation at rt; SDS-PAGE, coomassie staining
Chain of FKBP protein fused to a variant of AGT available from Covalys as SNAP26 (SNAP-FKBP) (P16455 1-182 C62A/K125A/A127T/R128A/G131K/G132T/M134L/R135S/C150S/N157G/S159E limits assumed): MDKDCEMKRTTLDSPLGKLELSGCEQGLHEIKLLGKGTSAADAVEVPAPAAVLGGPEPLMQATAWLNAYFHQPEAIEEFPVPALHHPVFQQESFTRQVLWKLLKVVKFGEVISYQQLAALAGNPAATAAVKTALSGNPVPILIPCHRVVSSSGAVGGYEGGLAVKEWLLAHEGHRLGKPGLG
Method: 1 μL of a 591 μM solution of FKBP protein fused to a variant of AGT available from Covalys as SNAP26 and 1 μL of a 100 μM solution of compound (89), (90), (91), (92) or (96) are added to 8 μL of a solution of 50 mM Tris-HCl pH 7.5; 100 mM NaCl; 0.1% Tween20; 1 mM DTT. Following a 4 h incubation at rt, 15 μL of a solution of 100 mM Tris-HCl pH 6.8; 2% SDS; 35% glycerol; 10 mM EDTA; 20 mM DTT is added. The mixture is boiled for 5 min at 95° C. After cooling to rt, 25 μL of this solution is loaded on a 4-20% linear gradient SDS-PAGE gel. After electrophoresis, the proteins are coomassie stained in gel to visualize protein trimer.

Molecule	structural ability to trigger the formation of a protein trimer [4]	further results
CCN(CC)c1ccc2nc3c4cc(OCC(=O)NC(COCCC(=O)NCCOCCOCCOCCOCCCCCCCl)(COCCC(=O)NCCOCCOCCOCCOCCCCCCCl)COCCC(=O)NCCOCCOCCOCCOCCCCCCCl)ccc4c(=O)cc-3oc2c1 [Compound 100, N-Tris-{[2-(halo-PEG4-NH-carbonyl)ethoxyl]methyl}methyl nile red-oxyacetamide]	–	structural ability to trigger the formation of a protein trimer [1]: confirmed
CN(C)c1ccc2c(-c3ccc(C(=O)NC(CCC(=O)NCc4ccc(COc5nc(N)nc6[nH]cnc56)cc4)C(=O)NCc4ccc(COc5nccc(N)n5)cc4)cc3C(=O)[O-])c3ccc(N(C)C)cc3[o+]c2c1 (centres unmarked) [Compound 104, N5-{4-[(2-amino-9H-purin-6-yloxy)methyl]benzyl}-N1-{4-[(4-aminopyrimidin-2-yloxy)methyl]benzyl}-2-tetramethylrhodamine-5-carboxamido-pentanediamide]	–	structural ability to trigger the formation of a protein dimer [2]: confirmed
N-Tris-{[2-(BC-PEG12-NH-carbonyl)ethoxyl]methyl}methyl nile red-oxyacetamide [Compound 99]	–	structural ability to trigger the formation of a protein trimer [3]: confirmed
N-Tris-{[2-(BG-PEG12-NH-carbonyl)ethoxy]methyl}methyl 3-[2-(2-maleimidoethyl)disulfanyl]propanoylamide [Compound 96]	confirmed	–
N-Tris-{[2-(BG-PEG12-NH-carbonyl)ethoxy]methyl}methyl 5-maleimido-pentanecarboxamide [Compound 92]	confirmed	–
N-Tris-{[2-(BG-PEG12-NH-carbonyl)ethoxy]methyl}methyl 7-(diethylamino)-coumarin-3-carboxamide [Compound 89]	confirmed	–
N-Tris-{[2-(BG-PEG12-NH-carbonyl)ethoxy]methyl}methyl ATTO-495-carboxamide [Compound 90]	confirmed	–
N-Tris-{[2-(BG-PEG12-NH-carbonyl)ethoxy]methyl}methyl nile red-oxyacetamide [Compound 91]	confirmed	–
